One data set has as its system iPTH. Nature of the data set: Phase 2 Main Study: iPTH change from baseline in CKD patients with SHPT. It is filed as in vivo, human. As to conditions: for iPTH levels reduced from baseline (FIG. 1) / mean percentage suppression in iPTH from baseline, peak, Day 90, 2 to 4 hours post-dose (exploratory analysis) / mean percentage suppression in iPTH from baseline at the end of 90 days / proportion of patients with ≥30% reduction in iPTH from baseline at end of 90 days (responder rate): patients on dialysis. The method, then: A randomized, double-blind, placebo-controlled phase 2 clinical study was conducted to assess the efficacy, pharmacokinetics (PK), pharmacodynamics (PD) and safety of 2-methyl-5-((2R,4S)-2-((((R)-1-(naphthalen-1-yl)ethyl)amino)methyl) chroman yl)benzoic acid, hydrochloride (Compound 3), as a monotherapy in patients with CKD with secondary hyperparathyroidism (SHPT). The patients enrolled in the study were either on dialysis or not on dialysis. Patients could continue taking doses (whether stable dosing or otherwise) of calcium supplements, phosphate binders, vitamin D, vitamin D analogues or a combination thereof for the treatment of SHPT in combination with Compound 3. Patients can take at least one calcium supplement, phosphate binder, vitamin D, vitamin D analogue or a combination thereof concurrently or concomitantly with Compound 3. Dosing for such calcium supplements, phosphate binders, vitamin D, vitamin D analogues or a combination thereof for the treatment of SHPT can be individualized based on patient's iPTH levels, and/or can correlate with doses presently used for the treatment of SHPT.
This was a double-blind, randomized, placebo-controlled, multicenter study with an additional non-randomized open-label arm conducted in patients with secondary hyper-parathyroidism (SHPT) associated with CKD which was further stratified in 2 groups: on dialysis and not on dialysis. The iPTH levels of patients in the “on dialysis” group were in a range of 428.2 pg/ml to 1240.6 pg/ml (mean 857.76 pg/ml) while those in the “not on dialysis” group were in a range of 125.0 pg/ml to 654.7 pg/ml (mean 297.83 pg/ml).
Total 179 patients were enrolled in this study of which 108 patients were on dialysis and 71 were not on dialysis. Patients of on dialysis group were further randomized to 3 subgroups administering 10 mg Compound 3, 25 mg Compound 3, or placebo once daily in a double blind fashion enrolling 35 patients, 36 patients and 18 patients, respectively, and an additional non-randomized open label arm enrolling 19 patients receiving 20 mg Compound 3, twice daily. A total of 98 patients completed the study. 10 patients discontinued the study. None of the patients discontinued the study due to adverse drug reactions.
Patients on not on dialysis group were randomized to two treatment subgroups administering 10 mg Compound 3, or placebo once daily in a double blind fashion enrolling 37 and 18 patients, respectively, and an additional non-randomized open label arm enrolling 16 patients receiving 5 mg Compound 3, twice daily. 4 patients discontinued the study. None of the patients discontinued the study due to adverse drug reactions.
The efficacy, PK, PD and safety of Compound 3, as a monotherapy in patients with CKD with secondary hyperparathyroidism (SHPT), were assessed. One objective of the study was to evaluate the mean percentage change in iPTH from baseline at the end of 90 days. Yet another objective of the study was to determine the proportion of patients with >30% reduction in iPTH from baseline at the end of 90 days. Yet another objective of the study was to ensure safety of patients.
For efficacy assessments, the primary efficacy assessment included measurement of iPTH and the exploratory efficacy assessment included measurement of parathyroid gland size at scheduled time points. Blood samples for measurement of iPTH were collected during Day −30 to Day −1 (Screening Period); Day 1; Day 8+/−3 days; Day 15+/−3 days; Day 30+/−3 days; Day 60+/−3 days; and Day 90+/−3 days (EOT/Early Discontinuations). Two blood samples were collected during Screening Period and higher of these 2 values was considered as a baseline value. During treatment period of the Main Study, blood samples were collected on Day 30, Day 60, and Day 90. If the blood sample collected on Day 90 could not be analysed for any reason, the second blood sample had to be collected within 3 days of end of treatment (EOT). […]

Data set [1] in a line: First-in-human Phase 1 single- and multiple-dose study. As to conditions: healthy subjects. The data set is classed as in vivo.
Where [2] appears, read: patients not on dialysis, 10 mg QD.

Results on one compound are retold here after US20230049917A1, “Pharmaceutical Composition of CASR Modulators and Methods and Uses Thereof” (Lupin Limited, priority 2019, published 2023).

Several values for one entry are separate records, joined by “and”; a condition that tells them apart may be missing. Identical values can stand only once.

In the case of `Cc1ccc([C@@H]2C[C@H](CN[C@H](C)c3cccc4ccccc34)Oc3ccccc32)cc1C(=O)O.Cl` [Compound 3, 2-methyl-5-((2R,4S)-2-((((R)-1-(naphthalen-1-yl)ethyl)amino)methyl)chroman-4-yl)benzoic acid hydrochloride], the “iPTH levels reduced from baseline (FIG. 2)” value was “more than 30%” in the data set with iPTH (patients not on dialysis, 5 mg BID) and “more than 30%” in the data set on iPTH (setting [2]). Moreover, the “mean percentage suppression in iPTH from baseline at the end of 90 days (2 to 4 hours post-dose), exploratory analysis” value with iPTH (patients not on dialysis, 5 mg BID open label arm) is reported as −55.03%; with iPTH (setting [2]), −48.07%. In addition, the “mean percentage suppression in iPTH versus Placebo at the end of Day 90” value in the data set with iPTH (patients not on dialysis, 10 mg QD and 5 mg BID) is recorded as “No significant difference”. Further, in the data set with iPTH (patients not on dialysis, QD or BID dosing regimen, 10 mg per day), the “difference in proportion of patients who achieved ≥30% reduction in iPTH from baseline at the end of 90 days versus Placebo” value was “not significant”. For the same compound, the “iPTH levels reduced from baseline (FIG. 1)” value was 25.65% in the data set with iPTH (10 mg QD), “more than 30%” in the data set with iPTH (20 mg BID) and “more than 30%” in the data set with iPTH (25 mg QD). Moreover, the “mean percentage suppression in iPTH from baseline, peak, Day 90, 2 to 4 hours post-dose (exploratory analysis)” value was −79.54% in the data set on iPTH (10 mg QD), −93.02% in the data set with iPTH (20 mg BID open label arm) and −85.79% in the data set with iPTH (25 mg QD). Also, the “mean percentage suppression in iPTH from baseline at the end of 90 days” value in the data set with iPTH (10 mg QD, per protocol) is on record as −25.65%; with iPTH (20 mg BID open label arm), −82.42%; in the data set on iPTH (25 mg QD, per protocol) it was −56.65%. Moreover, the “proportion of patients with ≥30% reduction in iPTH from baseline at end of 90 days (responder rate)” value in the data set with iPTH (20 mg BID, hydrochloride) is 93% and ~90%; with iPTH (25 mg QD) it was “around 80%”. Further, the safety and tolerability result in data set [1] is “safe and well tolerated”.
